Measured values as given in patent US20150160195A1, “HUMAN LIVER TUMOR CELL LINE AND METHOD OF AGENT SCREENING” (Industrial Technology Research Institute, priority 2013, published 2015).

How the values were obtained:
liver cancer = settings: phase III of human clinical trials; cited from earlier work
[1] = tested on: human liver tumor cell line ITRI-H16; test: Cell viability of ITRI-H16 cells after 48-hour treatment, Alarmablue measurement assay; settings: read-out: half maximal inhibitory concentration (IC50) in the ITRI-H16 cell line

CNC(=O)c1cc(Oc2ccc(NC(=O)Nc3ccc(Cl)c(C(F)(F)F)c3)cc2)ccn1 [Sorafenib]
extension of patient survival time (liver cancer): three-month | IC50 [1]: ~14 µM
